Test results reported in ChEMBL document CHEMBL4138123, “Design, synthesis and biological evaluation of novel pyrazolochalcones as potential modulators of PI3K/Akt/mTOR pathway and inducers of apoptosis in breast cancer cells” (Eur J Med Chem, 2017).
pIC50: −log10 of the molar value.

Assays:
NCI-H322M = experiment: Cytotoxicity against human NCI-H322M cells assessed as growth inhibition after 48 hrs by sulforhodamine B assay; format: functional
HCC 2998 [1] = experiment: Cytotoxicity against human HCC2998 cells assessed as growth inhibition after 48 hrs by sulforhodamine B assay; format: functional; conditions: HCC 2998, 48 h
HCT-15 = experiment: Cytotoxicity against human HCT15 cells assessed as growth inhibition after 48 hrs by sulforhodamine B assay; format: functional; conditions: HCT-15, 48 h
SW-620 = experiment: Cytotoxicity against human SW620 cells assessed as growth inhibition after 48 hrs by sulforhodamine B assay; format: functional; conditions: SW-620, 48 h
MDA-MB-435 = experiment: Cytotoxicity against human MDA-MB-435 cells assessed as growth inhibition after 48 hrs by sulforhodamine B assay; format: functional; conditions: MDA-MB-435, 48 h
MDA-MB-231 [2] = experiment: Cytotoxicity against human MDA-MB-231 cells assessed as growth inhibition after 48 hrs by MTT assay; format: functional, cell-based; conditions: MDA-MB-231, 48 h
M14 [3] = experiment: Cytotoxicity against human M14 cells assessed as cell growth at 0.01 uM after 48 hrs by sulforhodamine B assay relative to control; format: functional; conditions: M14, 48 h, read-out: Activity
COLO 205 = experiment: Cytotoxicity against human COLO205 cells assessed as cell growth at 0.1 uM after 48 hrs by sulforhodamine B assay relative to control; format: functional; conditions: COLO 205, 48 h, read-out: Activity
HCC 2998 [4] = experiment: Cytotoxicity against human HCC2998 cells assessed as cell growth at 0.1 uM after 48 hrs by sulforhodamine B assay relative to control; format: functional; conditions: HCC 2998, 48 h, read-out: Activity
SF-268 [5] = experiment: Cytotoxicity against human SF268 cells assessed as cell growth at 0.1 uM after 48 hrs by sulforhodamine B assay relative to control; format: functional; conditions: SF-268, 48 h, read-out: Activity
M14 [6] = experiment: Cytotoxicity against human M14 cells assessed as cell growth at 0.1 uM after 48 hrs by sulforhodamine B assay relative to control; format: functional; conditions: M14, 48 h, read-out: Activity
MDA-MB-231 [7] = experiment: Cytotoxicity against human MDA-MB-231 cells assessed as cell growth at 0.1 uM after 48 hrs by sulforhodamine B assay relative to control; format: functional; conditions: MDA-MB-231, 48 h, read-out: Activity
K562 [8] = experiment: Cytotoxicity against human K562 cells assessed as cell growth at 1 uM after 48 hrs by sulforhodamine B assay relative to control; format: functional; conditions: K562, 48 h, read-out: Activity
SR = experiment: Cytotoxicity against human SR cells assessed as cell growth at 1 uM after 48 hrs by sulforhodamine B assay relative to control; format: functional; conditions: read-out: Activity
NCI-H23 [9] = experiment: Cytotoxicity against human NCI-H23 cells assessed as cell growth at 1 uM after 48 hrs by sulforhodamine B assay relative to control; format: functional; conditions: NCI-H23, 48 h, read-out: Activity
SNB-19 = experiment: Cytotoxicity against human SNB19 cells assessed as cell growth at 1 uM after 48 hrs by sulforhodamine B assay relative to control; format: functional; conditions: SNB-19, 48 h, read-out: Activity
Malme-3M = experiment: Cytotoxicity against human MALME-3M cells assessed as cell growth at 1 uM after 48 hrs by sulforhodamine B assay relative to control; format: functional; conditions: read-out: Activity
SK-OV-3 = experiment: Cytotoxicity against human SKOV3 cells assessed as cell growth at 1 uM after 48 hrs by sulforhodamine B assay relative to control; format: functional; conditions: SK-OV-3, 48 h, read-out: Activity
HL-60(TB) = experiment: Cytotoxicity against human HL-60(TB) cells assessed as cell growth at 10 uM after 48 hrs by sulforhodamine B assay relative to control; format: functional; conditions: HL-60, 48 h, read-out: Activity
A549 = experiment: Cytotoxicity against human A549/ATCC cells assessed as cell growth at 10 uM after 48 hrs by sulforhodamine B assay relative to control; format: functional; conditions: A549, 48 h, read-out: Activity
SF-268 [10] = experiment: Cytotoxicity against human SF268 cells assessed as cell growth at 10 uM after 48 hrs by sulforhodamine B assay relative to control; format: functional; conditions: SF-268, 48 h, read-out: Activity
SK-MEL-5 = experiment: Cytotoxicity against human SK-MEL-5 cells assessed as cell growth at 10 uM after 48 hrs by sulforhodamine B assay relative to control; format: functional; conditions: SK-MEL-5, 48 h, read-out: Activity
OVCAR-4 = experiment: Cytotoxicity against human OVCAR4 cells assessed as cell growth at 10 uM after 48 hrs by sulforhodamine B assay relative to control; format: functional; conditions: OVCAR-4, 48 h, read-out: Activity
RXF 393 = experiment: Cytotoxicity against human RXF393 cells assessed as cell growth at 10 uM after 48 hrs by sulforhodamine B assay relative to control; format: functional; conditions: RXF 393, 48 h, read-out: Activity
K562 [11] = experiment: Cytotoxicity against human K562 cells assessed as cell growth at 100 uM after 48 hrs by sulforhodamine B assay relative to control; format: functional; conditions: K562, 48 h, read-out: Activity
MOLT-4 = experiment: Cytotoxicity against human MOLT4 cells assessed as cell growth at 100 uM after 48 hrs by sulforhodamine B assay relative to control; format: functional; conditions: MOLT-4, 48 h, read-out: Activity
NCI-H23 [12] = experiment: Cytotoxicity against human NCI-H23 cells assessed as cell growth at 100 uM after 48 hrs by sulforhodamine B assay relative to control; format: functional; conditions: NCI-H23, 48 h, read-out: Activity
NCI-H522 = experiment: Cytotoxicity against human NCI-H522 cells assessed as cell growth at 100 uM after 48 hrs by sulforhodamine B assay relative to control; format: functional; conditions: NCI-H522, 48 h, read-out: Activity
KM12 = experiment: Cytotoxicity against human KM12 cells assessed as cell growth at 100 uM after 48 hrs by sulforhodamine B assay relative to control; format: functional; conditions: KM12, 48 h, read-out: Activity
M14 [13] = experiment: Cytotoxicity against human M14 cells assessed as cell growth at 100 uM after 48 hrs by sulforhodamine B assay relative to control; format: functional; conditions: M14, 48 h, read-out: Activity
OVCAR-5 = experiment: Cytotoxicity against human OVCAR5 cells assessed as cell growth at 100 uM after 48 hrs by sulforhodamine B assay relative to control; format: functional; conditions: OVCAR-5, 48 h, read-out: Activity
OVCAR-8 = experiment: Cytotoxicity against human OVCAR8 cells assessed as cell growth at 100 uM after 48 hrs by sulforhodamine B assay relative to control; format: functional; conditions: OVCAR-8, 48 h, read-out: Activity
786-0 = experiment: Cytotoxicity against human 786-0 cells assessed as cell growth at 100 uM after 48 hrs by sulforhodamine B assay relative to control; format: functional; conditions: 786-0, 48 h, read-out: Activity
TK-10 = experiment: Cytotoxicity against human TK10 cells assessed as cell growth at 100 uM after 48 hrs by sulforhodamine B assay relative to control; format: functional; conditions: TK-10, 48 h, read-out: Activity
T47D = experiment: Cytotoxicity against human T47D cells assessed as cell growth at 100 uM after 48 hrs by sulforhodamine B assay relative to control; format: functional; conditions: read-out: Activity

SMILES: COc1ccc(C(=O)/C=C/c2cc(-c3ccc4c(c3)OCO4)n[nH]2)cc1OC
- TGI (NCI-H322M): 7.3 µM
- CC50 (NCI-H322M; read-out: LC50 (the source's name)): 29.6 µM
- LC50 (HCC 2998 [1]): 48.1 µM
- TGI (HCC 2998 [1]): 17.3 µM
- LC50 (HCT-15): > 100 µM
- TGI (HCT-15): > 100 µM
- LC50 (lethal concentration, 50% net cell kill) (SW-620): 15.9 µM
- TGI (SW-620): 4.81 µM
- LC50 (MDA-MB-435): 99 µM
- TGI (MDA-MB-435): 10 µM
- pIC50 (MDA-MB-231 [2]): 5.82
- growth at 0.01 µM (M14 [3]): 98%
- growth at 0.1 µM (COLO 205): 103%
- growth at 0.1 µM (HCC 2998 [4]): 97%
- growth at 0.1 µM (SF-268 [5]): 94%
- growth at 0.1 µM (M14 [6]): 98%
- growth at 0.1 µM (MDA-MB-231 [7]): 96%
- growth at 1 µM (K562 [8]): 80%
- growth at 1 µM (SR): 57%
- growth at 1 µM (NCI-H23 [9]): 85%
- growth at 1 µM (SNB-19): 79%
- growth at 1 µM (Malme-3M): 106%
- growth at 1 µM (SK-OV-3): 99%
- growth at 10 µM (HL-60(TB)): 3%
- growth at 10 µM (A549): 3%
- growth at 10 µM (SF-268 [10]): -12%
- growth at 10 µM (SK-MEL-5): 41%
- growth at 10 µM (OVCAR-4): 18%
- growth at 10 µM (RXF 393): -39%
- growth at 100 µM (K562 [11]): -12%
- growth at 100 µM (MOLT-4): -20%
- growth at 100 µM (NCI-H23 [12]): -67%
- growth at 100 µM (NCI-H522): -89%
- growth at 100 µM (KM12): -90%
- growth at 100 µM (M14 [13]): -77%
- growth at 100 µM (OVCAR-5): -30%
- growth at 100 µM (OVCAR-8): -65%
- growth at 100 µM (786-0): -83%
- growth at 100 µM (TK-10): -58%
- growth at 100 µM (T47D): -31%
